{"source": "patent US20150297573A1", "about": "“TPL2 KINASE INHIBITORS FOR PREVENTING OR TREATING DIABETES AND FOR PROMOTING Beta-CELL SURVIVAL” (INSERM (Institut National De La Santé Et De La Recherche …, priority 2012, published 2015)", "key": {"ERK1/2 [1]": {"system": "ERK1/2", "conditions": "human islets; Tpl2 inhibitor 3 μM 2 h; cytokine mix 20 min", "method": "Human islets were isolated, cultured 24-72 h for recovery in CMRL medium containing 10% SVF, treated with KRBH buffer with or without Tpl2 inhibitor (3 μM) during 2 h and then stimulated or not with a cytokine mix (IL-1β (100 U/ml), TNF-α (500 U/ml), and IFNγ(100 U/ml)) for 20 min. Lysates were subjected to western blot analysis with antibodies against phosphorylated ERK1/2 (1:1000) or β-actin (1:2000). […] Data are expressed as ratio of phosphorylated ERK2 on β-actin amount and as a fold increase over basal in islets without treatment. Data are expressed as the means±SEM. *P<0.05, vs stimulus effect in control cells.\nHuman pancreases were harvested from five brain-dead non-obese non-diabetic donors in agreement with the French Agence de la Biomedecine and the local Institutional Ethical Committee. […]\nHuman islets were isolated, cultured 24-72 h for recovery in CMRL medium containing 10% SVF, treated with KRBH buffer with or without Tpl2 inhibitor (3 μM) during 2 h and then stimulated or not with a cytokine mix (IL-1β (100 U/ml), TNF-α (500 U/ml), and IFNγ (100 U/ml)) for 20 min. […] Data are expressed as ratio of phosphorylated ERK2 on b-actin amount and as a fold increase over basal in islets without treatment. Data are expressed as the means±SEM. *P<0.05, vs stimulus effect in control cells."}, "isolated mouse islets": {"system": "isolated mouse islets", "conditions": "Tpl2 inhibitor 3 μM, cytokine mix 24 h", "method": "D: Isolated mouse islets were stimulated or not with a cytokine mix (IL-1β (1000 U/ml), TNF-α (1000 U/ml) and IFN-γ (1000 U/ml)) in RPMI medium for 24 h. The caspase-3/7 activity was measured using the “Caspase-Glo® 3/7 Assay”.\nPancreatic islets were isolated from male 10- to 12-weeks-old C57BL/6 mice following the injection of approximately 2 ml of 1 mg/ml collagenase XI through the bile duct. The pancreases were then removed, incubated under agitation at 37° C. for 9 minutes to complete the digestion and the islets were separated from the exocrine pancreatic tissue using a Histopaque-1077 gradient. The islets were then washed in cold PBS supplemented with 1.2 mM CaCl2, 1 mM MgCl2, and 5.6 mM glucose, handpicked under microscope, separated in groups composed of 200-300 islets and maintained in culture at 37° C. (95% air and 5% CO2) in RPMI 1640 containing 11.1 mM glucose and supplemented with 10% FCS, 2 mM glutamine, 100 units/ml penicillin and 100 μg/ml streptomycin for at least 24 h before being used."}, "[2]": {"system": "MEK, MK2, Src, protein kinase C, and EGF receptor", "conditions": "cited from earlier work"}, "p90RSK [3]": {"system": "p90RSK", "test": "p90RSK phosphorylation in INS-1E β-cells (Western blotting)", "type": "cell-based, rat", "conditions": "INS-1E cells, Tpl2 inhibitor 3 μM", "procedure": "(§1) Quantification of three to five experiments is shown.\n(§2) The rat β-cell line INS-1E was provided by Dr. Maechler (Department of Cell Physiology and Metabolism, Faculty of Medicine, University of Geneva, Geneva, Switzerland). Cells (passages 60-95) were maintained in culture as monolayer at 37° C. in humidified atmosphere with 5% CO2, using RPMI 1640 medium containing 11.1 mM glucose, and supplemented with 7.5% heat-inactivated FCS, 1 mM sodium pyruvate, 10 mM HEPES, 2 mM glutamine, 50 μM β-mercaptoethanol, 100 U/ml penicillin, and 100 μg/ml streptomycin. Experiments were performed in INS-1E cells at ˜70% confluence in 6-well plates.\n(§3) Tpl2 expression was specifically silenced in INS-1E cells using a validated set of 4 different 19-nucleotides siRNA duplexes (“ON-TARGETplus SMARTpool”, L-091828-01-0005) purchased from Dharmacon (ABgene Ltd, part of Thermo Fisher Scientific, Waltham, Mass.). […] Briefly, groups of 500,000 INS-1E cells were maintained in culture in the absence of penicillin and streptomycin for 24 h before being transfected with 40 nM siRNA-Lipofectamine™ 2000 complexes prepared in Opti-MEM medium at a 2:1 ratio. Medium was replaced 6 h after transfection with fresh antibiotic-free RPMI medium supplemented with 7.5% heat-inactivated FCS. […] The transfection efficiency was assessed using the “siGLO Green Transfection Indicator”. […]"}, "INS-1E cells [4]": {"system": "INS-1E cells", "conditions": "Tpl2 inhibitor 5 μM, 24 h in conditioned medium of LPS-activated RAW264.7", "method": "RAW264.7 macrophages were maintained in DMEM containing 5% (vol/vol) heat-inactivated fetal bovine serum and antibiotics at 37° C. and 5% CO2/95% air atmosphere. RAW264.7 macrophages were incubated for 24 h with LPS (Lipopolysaccharide) (0.5 ng/ml), and the resulting conditioned medium was transferred onto INS-1E cells treated with or without Tpl2 inhibitor (5 μM). Lysates were subjected to Western blotting with antibodies against cleaved caspase-3 (1:1000), or HSP90 (1:1000). […] Data are expressed as ratio of cleaved caspase-3 on HSP90 protein amount, and as fold of cleaved caspase-3 over basal in cells in control culture medium without Tpl2 inhibitor treatment."}, "human pancreatic islets": {"system": "human pancreatic islets", "test": "Glucose-stimulated insulin secretion (stimulation index) of human islets exposed to cytokines", "type": "cell-based", "conditions": "Tpl2 inhibitor 3 μM, cytokine mix 72 h, stimulation index 20 mM/2.8 mM glucose", "method": "Human islets were treated in RPMI medium containing 0.2% human albumin with or without Tpl2 inhibitor (3 μM) and/or Exendin-4 (20 nM) during 2 h and then stimulated or not with Tpl2 inhibitor (3 μM), Exendin-4 (20 nM) and/or a cytokine mixture (IL-1β (1000 U/ml), TNF-α (1000 U/ml) and IFN-γ (1000 U/ml) for 72 h, and then submitted to a glucose-response test in KRB buffer. The stimulation index is defined as the ratio of stimulated (20 mM glucose) to basal (2.8 mM glucose) insulin secretion. Each column represents the mean±SEM of 5 replicates (each replicate corresponds to islets from one human donor). *P<0.05, **P<0.01, and ***P<0.001 vs cytokine effect in control cells.\nINS-1E cells, mouse (5-10 islets per condition) or human islets (500-2000 IEQ per condition) were preincubated at 37° C. during 2 h with or without Tpl2 inhibitor (3 μM) and Exendin-4 (20 nM), and then incubated for different times (0, 8, 16, 24, 36, 48 or 72 h) with or without Tpl2-inhibitor (3 μM), IL-1β alone (10000 U/ml, 20 μg/ml), a cytokine mix (IL-1β (100 U/ml, 0.2 ng/ml), TNF-α (500 U/ml, 50 ng/ml), and IFN-γ (100 U/ml, 30 ng/ml) for INS-1E cells and mouse islets; and IL-1β (1000 U/ml, 2 ng/ml), TNF-α (1000 U/ml, 28 ng/ml) and IFN-γ (1000 U/ml, 833 ng/ml) for human islets), and/or Exendin-4 (20 nM). […]"}, "INS-1E cells [5]": {"system": "INS-1E cells", "test": "Apoptosis of INS-1E cells (cleaved caspase-3 and cleaved PARP, Western blotting)", "method": "FIG. 5: Apoptotic effects of inflammatory cytokines in INS-1E cells and in mouse pancreatic islets under Tpl2 inhibition. A and C: INS-1E β-cells were treated in RPMI medium containing BSA 0.5% (A) or 7.5% SVF (C) with or without Tpl2 inhibitor (3 μM) during 2 h and then stimulated or not with Tpl2 inhibitor (3 μM) and IL-1β alone (20 ng/ml) for 48 h (A) or the cytokine mixture (IL-1β (0.2 μg/ml), TNFα (50 ng/ml), and IFNγ (30 ng/ml) for 24 h (C). Lysates were subjected to Western blotting with antibodies against cleaved caspase-3 (1:1000), total and cleaved PARP (1:1000) or β-actin (1:5000). Quantification of four to ten independent experiments is shown. Data are expressed as ratio of cleaved caspase-3 or cleaved PARP on β-actin protein amounts, and as fold of these proteins over basal in cells without treatment. Data are presented as the means±SEM. *P<0.05, **P<0.01, and ***P<0.001 vs stimulus effect in control cells. B: INS-1E β-cells were stimulated or not in RPMI medium containing SVF 7.5% with each cytokine alone or a mixture of the three (IL-1β (0.2 ng/ml), TNFα (50 ng/ml), or IFNγ(30 ng/ml) for 24 h. Lysates were subjected to Western blotting with antibodies against cleaved caspase-3 (1:1000) or β-actin (1:5000). Dotted line represents 100% of caspase-3 amount from untreated control cells. Quantification of four independent experiments is shown. Data are expressed as a percentage of cleaved caspase-3 protein amount in untreated cells (caspase-3/β-actin protein amount ratio). Data are presented as the means±SEM. *P<0.05, **P<0.01, and ***P<0.001 vs untreated control cells."}, "ERK1/2 [6]": {"system": "ERK1/2", "test": "ERK1/2 phosphorylation in INS-1E β-cells (Western blotting)", "type": "cell-based, rat", "conditions": "INS-1E cells, Tpl2 inhibitor 3 μM", "procedure": "as §1, §2, §3"}, "db/db mice": {"system": "db/db mice", "procedure": "FIG. 8: Effect of in vivo inhibition of Tpl2 on initial and body weights. Five-week-old db/db mice were obtained from Janvier Ltd and fed with a standard diet (4% fat) all over the study. All mice had free access to food and fresh water and were kept on a 12 h-day/12 h-night cycle. Body weights were recorded until the day of sacrifice prior to intraperitoneal (ip) administration of glucose, insulin or the daily injection of 2.5 mg/kg Tpl2 inhibitor or of the corresponding vehicle.\nFIG. 9: Effect of in vivo inhibition of Tpl2 on fasting glucose and plasma insulin levels. Five-week-old db/db mice were obtained from Janvier Ltd and fed with a standard diet (4% fat) all over the study. All mice had free access to food and fresh water and were kept on a 12 h-day/12 h-night cycle. Fast and blood glucose concentrations were determined with a (Verio Onetouch, Lifescan, Johnson and Johnson Company) glucometer using blood sampled from the tail vein on mice receiving daily injection of 2.5 mg/kg Tpl2 inhibitor or of the corresponding vehicle. Serum insulin levels were quantified by radioimmunoassay (RIA rat insulin kit, Millipore) using blood sampled from the tail vein on the first day of the study or jugular arteries the day of the sacrifice.\n(§4) FIG. 10: Effect of in vivo inhibition of Tpl2 on glucose tolerance and insulin tolerance. Five-week-old db/db mice were obtained from Janvier Ltd and fed with a standard diet (4% fat) all over the study. All mice had free access to food and fresh water and were kept on a 12 h-day/12 h-night cycle. Mice received daily injection of 2.5 mg/kg Tpl2 inhibitor or of the corresponding vehicle. Glucose tolerance tests were performed by ip administration of 1-2 g/kg glucose after a 16 h overnight fast and blood glucose concentrations were determined with a (Verio Onetouch, Lifescan, Johnson and Johnson Company) glucometer using blood sampled from the tail vein. Insulin tolerance tests were carried out in a similar manner following the ip administration of 0.75 U insulin per kg body weight to non-fasted mice.\nas §4, with “Five-week-old” for “FIG. 10: Effect of in vivo inhibition of Tpl2 on glucose tolerance and insulin tolerance. Five-week-old”, “Body weights were recorded until the day of sacrifice prior to intraperitoneal (ip) administration of glucose, insulin or the” for “Mice received”, “mice. Serum insulin levels were quantified by radioimmunoassay (RIA rat insulin kit, Millipore) using blood sampled from the tail vein on the first day of the study or jugular arteries the day of the sacrifice.” for “mice.”\nThe progressive development of type 2 diabetes as observed in db/db mice is associated with increased body weight, insulin resistance, hyperglycemia and impaired glucose tolerance."}, "p38": {"system": "p38", "test": "p38 phosphorylation in INS-1E β-cells (Western blotting)", "type": "cell-based, rat", "conditions": "INS-1E cells", "procedure": "as §1\nTpl2 expression was specifically silenced in INS-1E cells using a validated set of 4 different 19-nucleotides siRNA duplexes (“ON-TARGETplus SMARTpool”, L-091828-01-0005) purchased from Dharmacon (ABgene Ltd, part of Thermo Fisher Scientific, Waltham, Mass.). […] Briefly, groups of 500,000 INS-1E cells were maintained in culture in the absence of penicillin and streptomycin for 24 h before being transfected with 40 nM siRNA-Lipofectamine™ 2000 complexes prepared in Opti-MEM medium at a 2:1 ratio. Medium was replaced 6 h after transfection with fresh antibiotic-free RPMI medium supplemented with 7.5% heat-inactivated FCS. A second transfection was performed 24 h after the first one to improve the transfection efficiency. The transfection efficiency was assessed using the “siGLO Green Transfection Indicator”. All assays were performed at least 50 h after the first transfection.\nProteins were visualized by enhanced chemiluminescence detection."}, "p90RSK [7]": {"system": "p90RSK", "conditions": "islets from C57BL/6 mice; Tpl2 inhibitor 3 μM; cytokine mix 20 min", "procedure": "(§5) 2D and 3B: 72 h after the first 40 nM siRNA transfection, INS-1E cells were treated or not, as described above. Phosphorylation and total protein amount were analyzed by Western blotting as described above. […] Data are expressed as ratio of phosphorylated on total protein amount and as fold of phosphorylation over basal in cells without treatment."}, "ERK1/2 [8]": {"system": "ERK1/2", "conditions": "islets from C57BL/6 mice; Tpl2 inhibitor 3 μM; cytokine mix 20 min", "procedure": "as §5"}, "[9]": {"system": "p46/p54 c-Jun N-terminal kinases (JNK)", "conditions": "INS-1E cells", "procedure": "as §5"}, "[10]": {"conditions": "INS-1E cells, Tpl2 inhibitor 3 μM, IL-1β 20 ng/ml 48 h"}, "[11]": {"conditions": "INS-1E cells, Tpl2 inhibitor 3 μM, cytokine mix 24 h"}}, "note": "Where two headings read alike, the source gives them in different places.", "data": [{"smiles": "N#Cc1cnc2cnc(NCc3cccnc3)cc2c1Nc1ccc(F)c(Cl)c1", "note": "[Tpl2 inhibitor, 4-(3-Chloro-4-fluorophenylamino)-6-(pyridine-3-yl-methylamino)-3-cyano-[1,7]napthyridine]", "values": [{"measurement": "inhibition of phosphorylation/activation of ERK1/2 induced by the cytokine mixture", "setting": "ERK1/2 [1]", "result": "significantly efficient at inhibiting"}, {"measurement": "decrease of caspase-3/7 activity induced by the mixture of cytokines", "setting": "isolated mouse islets", "result": "~50", "unit": "%"}, {"measurement": "inhibition or activation of other protein kinases", "setting": "[2]; concentration <5 μM that prevents activation of the ERK1/2 cascade", "result": "No other protein kinase has been found to be inhibited or activated"}, {"measurement": "selectivity over other related kinases (MEK, MK2, Src, protein kinase C, EGF receptor)", "setting": "[2]; concentrations below 5 μM", "result": "significant selectivity"}, {"measurement": "inhibition of IL-1β-induced p90RSK phosphorylation", "setting": "p90RSK [3]; IL-1β 20 ng/ml 20 min, same extent as ERK1/2 (60%)", "result": "inhibited to the same extent"}, {"measurement": "inhibition of cytokine-induced p90RSK phosphorylation", "setting": "p90RSK [3]; cytokine mix 20 min, same extent as ERK1/2 (50-60%)", "result": "inhibited to the same extent"}, {"measurement": "decrease of cleaved caspase-3 induced by macrophage conditioned medium", "setting": "INS-1E cells [4]", "result": "around 55%"}, {"measurement": "prevention of cytokine-induced insulin secretion failure", "setting": "human pancreatic islets", "result": "~50", "unit": "%"}, {"measurement": "decrease in cleaved PARP level induced by IL-1β", "setting": "INS-1E cells [5]; [10]", "result": "~30", "unit": "%"}, {"measurement": "decrease in cleaved caspase-3 level induced by IL-1β", "setting": "INS-1E cells [5]; [10]", "result": "~45", "unit": "%"}, {"measurement": "decrease in cleaved PARP level induced by the mixture of cytokines", "setting": "INS-1E cells [5]; [11]", "result": "~25", "unit": "%"}, {"measurement": "decrease in cleaved caspase-3 level induced by the mixture of cytokines", "setting": "INS-1E cells [5]; [11]", "result": "~30", "unit": "%"}, {"measurement": "INS-1E cell apoptosis with Tpl2 inhibitor alone", "setting": "INS-1E cells [5]; long term treatment, 3 μM, no cytokine", "result": "did not increase"}, {"measurement": "suppression of IL-1β-induced ERK1/2 phosphorylation", "setting": "ERK1/2 [6]; 2 h, IL-1β 20 ng/ml 20 min", "result": 60, "unit": "%"}, {"measurement": "suppression of cytokine-induced ERK1/2 phosphorylation", "setting": "ERK1/2 [6]; cytokine mix IL-1β+TNF-α+IFN-γ 20 min", "result": "50-60%"}, {"measurement": "body weights vs vehicle-treated db/db mice", "setting": "db/db mice; 2.5 mg/kg daily ip, 2 weeks", "result": "not different"}, {"measurement": "tolerance to glucose challenges", "setting": "db/db mice; 2.5 mg/kg daily ip, after 7 days", "result": "significantly improved"}, {"measurement": "insulin sensitivity (insulin tolerance test)", "setting": "db/db mice; 2.5 mg/kg daily ip, after 14 days", "result": "significant improvement"}, {"measurement": "serum insulin level at fast", "setting": "db/db mice; 2.5 mg/kg daily ip, day 14, vehicle 11.3±1.2", "result": "4.3 ± 0.4", "unit": "ng/mL"}, {"measurement": "blood glucose concentration at fast", "setting": "db/db mice; 2.5 mg/kg daily ip, day 14, vehicle 258.6±40.7", "result": "144.0 ± 15.5", "unit": "mg/dL"}, {"measurement": "toxicity", "setting": "db/db mice; daily ip 2.5 mg/kg, 2 weeks", "result": "not toxic"}, {"measurement": "effect on IL-1β-induced p38 phosphorylation", "setting": "p38; 3 μM", "result": "no effect"}, {"measurement": "effect on IL-1β-induced p38 phosphorylation", "setting": "p38; 10 μM (data not shown)", "result": "no effect"}, {"measurement": "inhibition of cytokine-stimulated p90RSK phosphorylation", "setting": "p90RSK [7]", "result": "efficient at inhibiting"}, {"measurement": "inhibition of cytokine-stimulated ERK1/2 phosphorylation", "setting": "ERK1/2 [8]", "result": "efficient at inhibiting"}, {"measurement": "effect on IL-1β-induced p46/p54 JNK phosphorylation", "setting": "[9]; 3 μM", "result": "no effect"}, {"measurement": "effect on IL-1β-induced p46/p54 JNK phosphorylation", "setting": "[9]; 10 μM (data not shown)", "result": "no effect"}]}]}
